Results from patent publication US9206246B2, “Heparin/heparan sulfate-dependent inhibitors of activated protein C and uses thereof in treating hemophilic disorders” (Academia Sinica, priority 2012, dated 2015).
Entries after “also recorded” stand apart in the source; their conditions may differ.

Key:
[1] = system: APC in FVIII-deficient plasma; test: APTT-based APC resistance assay in FVIII-deficient plasma; assay type: biochemical; conditions: 200 nM DrKIn-I, 40 nM APC, 2 μg/ml heparan sulfate
Description: (§1) APTT-based clotting times were measured in normal, FVIII-deficient and FIX-deficient plasma containing 2 μg/ml heparan sulfate in the presence or absence of 40 nM APC and the indicated concentrations of DrKIn-I. Results shown are means±S.D. of at least three experiments.
(§2) 50 μl of normal plasma, FVIII-deficient plasma or FIX-deficient plasma supplemented with 2 μg/ml heparan sulfate (four disaccharide units long) was exposed to APC (40 nM) and varying concentrations of DrKIn-I (50-200 nM). 50 μl of activated partial thromboplastin (APTT) reagent (HYPHEN Biomed) was added and incubated for 1 minute at 37° C. Finally, clotting was initiated by adding 50 μl of 20 mM CaCl2. Coagulation times, which reflect the activities of APC, were recorded on a coagulometer (Hemostasis Analyzer KC-1; Sigma Diagnostics).

protein C zymogen (PC) = protein C zymogen (PC) (Homo sapiens, UniProt P04070); test: Surface plasmon resonance, immobilized protein C zymogen; assay type: binding; conditions: DrKIn-I 31.25, 62.5, 125 nM
Description: A: 70 μg of DrKIn-I in 0.1 ml equilibrating buffer (20 mM Tris-HCl, pH 8.0) was applied to a 5 ml HiTrap Heparin column and eluted with a 50 ml gradient from 0.0-1.0 M NaCl. The salt concentration corresponding to the elution peak was determined to be 0.95 M. B, Binding of DrKIn-I (0.78, 1.56, 2.34, 3.13, 4.68 and 6.25 nM) to immobilized APC was assessed in buffer containing 10 mM HEPES, 0.15 M NaCl, 3 mM EDTA and 0.05% P20 at a flow rate of 60 μl/min at 25° C. […] The thin lines represent the global fit to the response data. […] Results shown are means±SD of three experiments. Representative binding traces are shown.
Biacore T200 (GE Healthcare) was used for analysis. APC or PC dissolved in 10 mM acetate buffer (pH 5.0) was immobilized on a CM5 sensor chip to a response unit (RU) of 1000 with an amine coupling kit. Associations and dissociations of DrKIn-I were performed in 10 mM HEPES (N-2-hydroxyethylpiperazine-N′-2-ethanesulfonic acid; pH 7.4), 150 mM NaCl, 3 mM EDTA (ethylenediaminetetraacetic acid) and 0.05% P20 with a flow rate of 60 μl/min. The sensor surface was regenerated with 90 μl of 2 M MgCl2 and the signals obtained were subtracted by that obtained from the reference channel that had not been coated with ligands. Binding kinetics were determined by global fitting to 1:1 Langmuir binding model using the Biaevaluation software (GE Healthcare).

APC in normal plasma = test: APTT-based APC resistance assay in normal plasma; assay type: biochemical; conditions: 200 nM DrKIn-I, 40 nM APC, 2 μg/ml heparan sulfate
Description: as §1, §2

[2] = system: protein C-deficient plasma; test: Thrombin generation assay in protein C-deficient plasma; assay type: biochemical; conditions: TM-containing protein C-deficient plasma, heparan sulfate
Description: Thrombin generation in normal (A) and protein C-deficient (B) plasma. Experiments were performed in the presence of heparan sulfate (2 μg/ml). Solid lines represent thrombin generation in the presence of 100 nM thrombomodulin (TM) and varying concentrations of DrKIn-I (●, 0 nM; ▪, 40 nM; ▴, 80 nM; ◯, 200 nM). Dashed lines represent thrombin generation in the absence of TM and DrKIn-I.
(§3) Briefly, 80 μl of either normal plasma, protein C-deficient plasma, FVIII-deficient plasma or FIX deficient plasma containing 2 μM corn trypsin inhibitor, 2 μg/ml heparan sulfate (four disaccharide units long), 30 μM DOPC/DOPS/DOPE (60:20:20) and 100 nM recombinant TM was incubated with 20 μl of 500-fold diluted TF solution (Innovin; Dade Behring) in the absence or presence of the indicated concentrations of DrKIn-I. Following incubation for 3 minutes at 37° C., thrombin generation was initiated by the dispensation of 20 μl of 2.5 mM fluorogenic substrate (Z-Gly-Gly-Arg-AMC.HCl) dissolved in 0.15 M NaCl, 60 mg/ml BSA and 100 mM CaCl2. Measurements were taken at 1 minute intervals on a SpectraMax M2^e Microplate Reader using an excitation wavelength of 360 nm and an emission wavelength of 460 nm. In some assays, experiments were performed in the absence of thrombomodulin. Results were evaluated using the Technothrombin TGA software (Technoclone).

FVIII-deficient plasma = test: Thrombin generation assay in FVIII-deficient plasma; assay type: biochemical; conditions: 100 nM TM, 2 μg/ml heparan sulfate
Description: (A) Representative thrombin generation curves in FVIII-deficient and FIX-deficient plasma performed in the presence of heparan sulfate (2 μg/ml), TM (100 nM) and varying concentrations of DrKIn-I (●, 0 nM; ▪, 20 nM; ▴, 40 nM; ▾, 80 nM; ◯, 200 nM). Dashed lines represent thrombin generation in the absence of TM and DrKIn-I. (B-C) Activity in FVIII-deficient (B) and FIX-deficient (C) plasma. Left panels show ETP; right panels, peak thrombin. For comparison, dashed lines represent the activity of normal plasma containing TM and heparan sulfate in the absence of the inhibitor. Results are represented as means±SEM of at least three independent experiments.
as §3, with “Measurements were taken at 1 minute intervals on a SpectraMax M2^e Microplate Reader using an excitation wavelength of 360 nm and an emission wavelength of 460 nm. In some assays, experiments were performed in the absence of thrombomodulin.” left out

DrKIn-I (CGGNDNNFETRKKCRQTCGAPRKGRPT)
clotting time [1]: almost completely restored the clotting time to that observed in the absence of APC
binding to immobilized protein C zymogen (protein C zymogen (PC)): No binding was observed
clotting time (APC in normal plasma): almost completely restored the clotting time to that observed in the absence of APC
thrombin generation profile (APC-independent) [2]: did not alter the thrombin generation profile; also recorded: negligible effects
DrKIn-I concentration correcting ETP to normal levels (FVIII-deficient plasma): 60 nM
DrKIn-I concentration correcting peak thrombin to normal levels (FVIII-deficient plasma): 130 nM
